Where two headings read alike, the source gives them in different places.
Key:
[1] = test system: HBV (HepG2.117 cell line, inducibly HBV producing); assay: Anti-HBV activity: intracellular HBV DNA by real-time PCR in HepG2.117 cells after 3 days of treatment; format: cell-based, hepatitis B virus
How it was run: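 HepG2.117 cells replicate HBV under Tet-off control, without doxycycline. After induction of replication, cells were treated with serially diluted compound for 3 days, and intracellular HBV DNA was then quantified by real-time PCR with an HBV-specific primer set and probe.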

[2] = in vitro; format: cell-based; conditions: human, HepG2 or HepG2.117 cells, ATPlite, mean value; for CC50 at 4 days: 4-days incubation (values marked with *)
How it was run: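 Luminescent ATP quantitation served as the viability endpoint following a 3- or 4-day incubation with test compounds.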

[3] = Hepatitis B virus, HepG2.117, 72 h, HepG2.117 cells, intracellular HBV DNA by real-time PCR, 3 days of treatment, mean value; read-out: EC50 (μM, mean value)
[4] = 3-days incubation (not marked with *)
[5] = Hepatitis B virus, HepG2.117, 72 h, HepG2.117 cells, 3 days of treatment, intracellular HBV DNA by real-time PCR; mean value; read-out: EC50 (μM, mean value)
[6] = 3-days incubation (unmarked values)

| Structure (SMILES) | EC50 [1, 3] [µM] | CC50 at 3 days [2, 4] [µM] | EC50 [1, 5] [µM] | CC50 at 3 days [2, 6] [µM] | CC50 at 4 days [2] [µM] |
| --- | --- | --- | --- | --- | --- |
| CNC(=O)c1ccc(-n2c(N[C@@H](C)c3cnccn3)nc3c(c2=O)C[C@@H](C)N(C(=O)c2ccc(Cl)c(C(F)(F)F)c2)C3)cc1 (single isomer, unassigned) [Compound C665b] | 0.65 | > 50 | – | – | – |
| COc1ccc(CNc2nc3c(c(=O)n2-c2cccc(C(=O)O)c2)CCN(C(=O)c2ccc(Cl)c(Cl)c2)C3)cc1 [Compound C75, 3-[7-(3,4-dichlorobenzoyl)-2-{[(4-methoxyphenyl)methyl]amino}-4-oxo-5,6,7,8-tetrahydropyrido[3,4-d]pyrimidin-3(4H)-yl]benzoic acid] | – | – | > 50 | > 50 | – |
| CC(C)Nc1nc2c(c(=O)n1-c1ccc(-c3cccc(N4CCOCC4)n3)cc1)CCN(C(=O)c1ccc(Cl)c(Cl)c1)C2 [Compound C173, 7-(3,4-dichlorobenzoyl)-3-{4-[6-(morpholin-4-yl)pyridin-2-yl]phenyl}-2-[(propan-2-yl)amino]-5,6,7,8-tetrahydropyrido[3,4-d]pyrimidin-4(3H)-one] | – | – | 0.88 | 7.8 | – |
| CNC(=O)c1ccc(-n2c(NC(C)C)nc3c(c2=O)C[C@@H](C)N(C(=O)c2ccc4c(c2)C=CS4(=O)=O)C3)cc1 [Compound C604] | > 25 | > 50 | – | – | – |
| COc1ccc(CNc2nc3c(c(=O)n2-c2ccnn2C)CCN(C(=O)c2ccc(Cl)c(Cl)c2)C3)cc1 [Compound C108, 7-(3,4-dichlorobenzoyl)-2-{[(4-methoxyphenyl)methyl]amino}-3-(1-methyl-1H-pyrazol-5-yl)-5,6,7,8-tetrahydropyrido[3,4-d]pyrimidin-4(3H)-one] | – | – | 1.87 | 26.5 | – |
| CNC(=O)c1ccc(-n2c(N[C@@H](C)c3ccccc3)nc3c(c2=O)C[C@@H](C)N(C(=O)c2ccc(Cl)c(Cl)c2)C3)c(Cl)c1 (single isomer, unassigned) [Compound C386a] | 0.08 | > 50 | – | – | – |
| CNC(=O)c1cc(-n2c(N[C@@H](C)c3ccc(C(F)(F)F)cc3)nc3c(c2=O)C[C@@H](C)N(C(=O)c2ccc(Cl)c(Cl)c2)C3)nn1C [Compound C623] | 0.04 | > 50 | – | – | – |
| CNC(=O)c1ccc(-n2c(NC34C5C6C7C5C3C7C64)nc3c(c2=O)C[C@@H](C)N(C(=O)c2ccc(Cl)c(Cl)c2)C3)cc1 (stereo partly shown) [Compound C461] | 1.45 | > 50 | – | – | – |
| CNC(=O)c1cc(-n2c(NC(C)C)nc3c(c2=O)C[C@@H](C)N(C(=O)c2cccc(C(F)(F)F)c2)C3)n(C)n1 [Compound C646] | 1.62 | > 50 | – | – | – |
| CNC(=O)c1ccc(-n2c(N3CCC[C@H]3C3CC3)nc3c(c2=O)C[C@@H](C)N(C(=O)c2ccc(Cl)c(Cl)c2)C3)cc1 (single isomer, unassigned) [Compound C353, 4-[(6R)-2-[(2*S)-2-cyclopropylpyrrolidin-1-yl]-7-(3,4-dichlorobenzoyl)-6-methyl-4-oxo-5,6,7,8-tetrahydropyrido[3,4-d]pyrimidin-3(4H)-yl]-N-methylbenzamide] | – | – | 0.11 | 19.5 | – |
| CNC(=O)c1ccc(-n2c(NCC(CO)C3CC3)nc3c(c2=O)C[C@@H](C)N(C(=O)c2ccc(Cl)c(Cl)c2)C3)cc1 (stereo partly shown) [Compound C482] | 8.34 | > 50 | – | – | – |
| CCOC(=O)c1cccc(-n2c(NCc3ccc(OC)cc3)nc3c(c2=O)CCN(C(=O)c2ccc(Cl)c(Cl)c2)C3)c1 [Compound C74, ethyl 3-[7-(3,4-dichlorobenzoyl)-2-{[(4-methoxyphenyl)methyl]amino}-4-oxo-5,6,7,8-tetrahydropyrido[3,4-d]pyrimidin-3(4H)-yl]benzoate] | – | – | 1.43 | > 50 | – |
| CNC(=O)c1ccc(-n2c(NCc3cn(C)nn3)nc3c(c2=O)C[C@@H](C)N(C(=O)c2ccc(Cl)c(Cl)c2)C3)cc1 [Compound C469] | > 25 | > 50 | – | – | – |
| CNC(=O)c1ccc(-n2c(NC(C)C)nc3c(c2=O)C[C@@H](C)N(C(=O)c2ccc4c(c2)CNC4=O)C3)cc1 [Compound C494] | 2.64 | > 50 | – | – | – |
| COCCNC(=O)c1ccc(-n2c(NC(C)C)nc3c(c2=O)C[C@@H](C)N(C(=O)c2ccc(Cl)c(Cl)c2)C3)cc1 [Compound C205, 4-[(6R)-7-(3,4-dichlorobenzoyl)-6-methyl-4-oxo-2-[(propan-2-yl)amino]-5,6,7,8-tetrahydropyrido[3,4-d]pyrimidin-3(4H)-yl]-N-(2-methoxyethyl)benzamide] | – | – | 0.13 | > 50 | – |
| CNC(=O)c1ccc(-n2c(NC(C)C)nc3c(c2=O)C[C@@H](C)N(C(=O)c2cc4c(C)cc(OC)cc4[nH]2)C3)cc1 [Compound C567] | 0.67 | 36.5 | – | – | – |

| Structure (SMILES) | EC50 [1, 3] [µM] | CC50 at 3 days [2, 4] [µM] | EC50 [1, 5] [µM] | CC50 at 3 days [2, 6] [µM] | CC50 at 4 days [2] [µM] |
| --- | --- | --- | --- | --- | --- |
| CSc1nc2c(c(=O)[nH]1)CCN(C(=O)c1ccc(Cl)c(Cl)c1)C2 [Compound C6, 7-(3,4-dichlorobenzoyl)-2-(methylsulfanyl)-5,6,7,8-tetrahydropyrido[3,4-d]pyrimidin-4(3H)-one] | – | – | 16 | – | > 50 |
| CNC(=O)c1ncc(-n2c(NC(C)C)nc3c(c2=O)C[C@@H](C)N(C(=O)c2ccc(Cl)c(Cl)c2)C3)cn1 [Compound C328, 5-[(6R)-7-(3,4-dichlorobenzoyl)-6-methyl-4-oxo-2-[(propan-2-yl)amino]-5,6,7,8-tetrahydropyrido[3,4-d]pyrimidin-3(4H)-yl]-N-methylpyrimidine-2-carboxamide] | – | – | 0.51 | > 50 | – |
| CNC(=O)c1ccc(-n2c(NC(C)C)nc3c(c2=O)C[C@@H](C)N(C(=O)c2cc(F)c(Br)cc2Cl)C3)cc1 [Compound C592] | 0.7 | > 50 | – | – | – |
| CNC(=O)c1ncc(-n2c(NC(C)C)nc3c(c2=O)C[C@@H](C)N(C(=O)c2ccc(Cl)c(C(F)(F)F)c2)C3)n1C [Compound C671] | 0.05 | > 50 | – | – | – |
| CNC(=O)c1cc(-n2c(N[C@@H](C)c3ccc(OC(F)(F)F)cc3)nc3c(c2=O)C[C@@H](C)N(C(=O)c2ccc(Cl)c(Cl)c2)C3)n(C)n1 [Compound C618] | 0.09 | > 45 | – | – | – |
| CNC(=O)c1ccc(-n2c(Nc3ccnn3C)nc3c(c2=O)C[C@@H](C)N(C(=O)c2ccc(Cl)c(Cl)c2)C3)cc1 [Compound C389] | > 10 | > 50 | – | – | – |
| CNC(=O)c1ccc(-n2c(NCC34C5C6C7C5C3C7C64)nc3c(c2=O)C[C@@H](C)N(C(=O)c2ccc(Cl)c(Cl)c2)C3)cc1 (stereo partly shown) [Compound C451] | 0.41 | > 50 | – | – | – |
| CNC(=O)c1ccc(-n2c(N[C@@H](C)c3ccc4[nH]cnc4c3)nc3c(c2=O)C[C@@H](C)N(C(=O)c2ccc(Cl)c(Cl)c2)C3)cc1 (single isomer, unassigned) [Compound C647b] | > 2.5 | > 50 | – | – | – |
| CNC(=O)c1ccc(-n2c(N[C@H](C)c3ccc(F)c(OC)c3)nc3c(c2=O)C[C@@H](C)N(C(=O)c2ccc(Cl)c(Cl)c2)C3)cc1 (single isomer, unassigned) [Compound C435a] | 0.1 | 26.4 | – | – | – |
| CC(C)Nc1nc2c(c(=O)n1-c1ccc(S(C)(=O)=O)cc1)CCN(C(=O)c1ccc(Cl)c(Cl)n1)C2 [Compound C223, 7-(5,6-dichloropyridine-2-carbonyl)-3-[4-(methanesulfonyl)phenyl]-2-[(propan-2-yl)amino]-5,6,7,8-tetrahydropyrido[3,4-d]pyrimidin-4(3H)-one] | – | – | > 10 | > 50 | – |
| COc1ccc(CNc2nc3c(c(=O)n2-c2ccccc2OC)CCN(C(=O)c2ccc(F)c(Cl)c2)C3)cc1 [Compound C3, 7-(3-chloro-4-fluorobenzoyl)-3-(2-methoxyphenyl)-2-{[(4-methoxyphenyl)methyl]amino}-5,6,7,8-tetrahydropyrido[3,4-d]pyrimidin-4(3H)-one] | – | – | 8.48 | – | > 50 |
| CC(C)Nc1nc2c(c(=O)n1-c1ccc(S(C)(=O)=O)cc1)C(C)CN(C(=O)c1ccc(Cl)c(Cl)c1)C2 (stereo not shown) [Compound C154, 7-(3,4-dichlorobenzoyl)-3-[4-(methanesulfonyl)phenyl]-5-methyl-2-[(propan-2-yl)amino]-5,6,7,8-tetrahydropyrido[3,4-d]pyrimidin-4(3H)-one] | – | – | 0.52 | > 50 | – |
| CC(C)Nc1nc2c(c(=O)n1-c1ccc(-c3ccns3)cc1)C[C@@H](C)N(C(=O)c1ccc(Cl)c(Cl)c1)C2 [Compound C212, (6R)-7-(3,4-dichlorobenzoyl)-6-methyl-2-[(propan-2-yl)amino]-3-[4-(1,2-thiazol-5-yl)phenyl]-5,6,7,8-tetrahydropyrido[3,4-d]pyrimidin-4(3H)-one] | – | – | 0.26 | > 50 | – |
| Cc1cc(-c2ncc[nH]2)ccc1-n1c(NC(C)C)nc2c(c1=O)C[C@@H](C)N(C(=O)c1ccc(Cl)c(Cl)c1)C2 [Compound C399] | 0.24 | 25.2 | – | – | – |
| CNC(=O)c1ccc(-n2c(N[C@@H]3CCC34CCC4)nc3c(c2=O)C[C@@H](C)N(C(=O)c2ccc(Cl)c(Cl)c2)C3)cc1 (single isomer, unassigned) [Compound C346a] | 0.94 | 27.6 | – | – | – |
| C[C@@H]1Cc2c(nc(NCc3cscn3)n(-c3ccc(S(C)(=O)=O)cc3)c2=O)CN1C(=O)c1ccc(Cl)c(Cl)c1 [Compound C146, (6R)-7-(3,4-dichlorobenzoyl)-3-[4-(methanesulfonyl)phenyl]-6-methyl-2-{[(1,3-thiazol-4-yl)methyl]amino}-5,6,7,8-tetrahydropyrido[3,4-d]pyrimidin-4(3H)-one] | – | – | 1.95 | > 50 | – |
